Results taken from ChEMBL document CHEMBL1157124, “Synthesis and anticancer evaluation of alpha-lipoic acid derivatives” (Bioorg Med Chem Lett, 2010).

Experiments:
Format in all cases: functional
[1] = tested on: KB; test: Cytotoxicity against human KB cells assessed as growth inhibition at 10 ug/ml after 24 hrs by MTT assay; settings: read-out: GI
[2] = tested on: NCI-H460; test: Cytotoxicity against human NCI-H460 cells assessed as growth inhibition at 1 ug/ml after 24 hrs by MTT assay; settings: NCI-H460, 24 h, read-out: GI
[3] = Cytotoxicity against human HO8910 cells assessed as growth inhibition at 10 ug/ml after 24 hrs by MTT assay; settings: HO-8910, 24 h, read-out: GI
[4] = tested on: KB; test: Cytotoxicity against human KB cells assessed as growth inhibition at 1 ug/ml after 24 hrs by MTT assay; settings: read-out: GI
[5] = tested on: KB; test: Cytotoxicity against human KB cells assessed as growth inhibition at 100 ug/ml after 24 hrs by MTT assay; settings: read-out: GI
[6] = Cytotoxicity against human HO8910 cells assessed as growth inhibition at 100 ug/ml after 24 hrs by MTT assay; settings: HO-8910, 24 h, read-out: GI
[7] = tested on: Bel-7402; test: Cytotoxicity against human Bel7402 cells assessed as growth inhibition at 10 ug/ml after 24 hrs by MTT assay; settings: Bel-7402, 24 h, read-out: GI
[8] = tested on: NCI-H460; test: Cytotoxicity against human NCI-H460 cells assessed as growth inhibition at 0.1 ug/ml after 24 hrs by MTT assay; settings: NCI-H460, 24 h, read-out: GI
[9] = tested on: Bel-7402; test: Cytotoxicity against human Bel7402 cells assessed as growth inhibition at 1 ug/ml after 24 hrs by MTT assay; settings: Bel-7402, 24 h, read-out: GI
[10] = Cytotoxicity against human HO8910 cells assessed as growth inhibition at 1 ug/ml after 24 hrs by MTT assay; settings: HO-8910, 24 h, read-out: GI
[11] = tested on: Bel-7402; test: Cytotoxicity against human Bel7402 cells assessed as growth inhibition at 100 ug/ml after 24 hrs by MTT assay; settings: Bel-7402, 24 h, read-out: GI
[12] = tested on: NCI-H460; test: Cytotoxicity against human NCI-H460 cells assessed as growth inhibition at 10 ug/ml after 24 hrs by MTT assay; settings: NCI-H460, 24 h, read-out: GI
[13] = tested on: NCI-H460; test: Cytotoxicity against human NCI-H460 cells assessed as growth inhibition at 100 ug/ml after 24 hrs by MTT assay; settings: NCI-H460, 24 h, read-out: GI
[14] = tested on: Bel-7402; test: Cytotoxicity against human Bel7402 cells assessed as growth inhibition at 0.1 ug/ml after 24 hrs by MTT assay; settings: Bel-7402, 24 h, read-out: GI
[15] = Cytotoxicity against human HO8910 cells assessed as growth inhibition at 0.1 ug/ml after 24 hrs by MTT assay; settings: HO-8910, 24 h, read-out: GI
[16] = tested on: KB; test: Cytotoxicity against human KB cells assessed as growth inhibition at 0.1 ug/ml after 24 hrs by MTT assay; settings: read-out: GI

SMILES | inhibition of growth at 10 µg/mL [1] | inhibition of growth at 1 µg/mL [2] | inhibition of growth at 10 µg/mL [3] | inhibition of growth at 1 µg/mL [4] | inhibition of growth at 100 µg/mL [5] | inhibition of growth at 100 µg/mL [6] | inhibition of growth at 10 µg/mL [7] | inhibition of growth at 0.1 µg/mL [8] | inhibition of growth at 1 µg/mL [9] | inhibition of growth at 1 µg/mL [10] | inhibition of growth at 100 µg/mL [11] | inhibition of growth at 10 µg/mL [12] | inhibition of growth at 100 µg/mL [13] | inhibition of growth at 0.1 µg/mL [14] | inhibition of growth at 0.1 µg/mL [15] | inhibition of growth at 0.1 µg/mL [16]
O=C(CCCCC(S)CCS)Nc1ccc(Br)cn1 (stereo not drawn) | 34.1% | 10.7% | 29.4% | 2.51% | 59.2% | 56.8% | 23.2% | 6.4% | 4.71% | 2.51% | 41.1% | 39.2% | 55.9% | – | – | –
O=C(CCCCC(S)CCS)Nc1ccccc1Cl (stereo not drawn) | – | 8.19% | – | – | – | – | – | 6.36% | 3.08% | 7.72% | – | 18.2% | 12.1% | 5.11% | 6.11% | –
O=C(CCCCC1CCSS1)Nc1ccccn1 (stereo not drawn) | – | 0.81% | – | – | 25.1% | 51.9% | 5.77% | 2.61% | – | – | 37.6% | – | 39.3% | 0.89% | 1.14% | –
COc1ccc(NC(=O)CCCCC(S)CCS)cc1 (stereo not drawn) | 8.93% | – | 4.14% | 2.49% | 22.2% | 12.6% | 10.4% | 5.69% | 3.96% | 1.79% | 22.5% | 1.43% | 23.5% | 5.35% | – | –
CC(=O)SCCC(CCCCC(=O)O)SC(C)=O (stereo not drawn) | 8.88% | 9.89% | 1.61% | 12.4% | 8.03% | – | 9.22% | 9.96% | 12.8% | – | 8.35% | 6.04% | 11% | 10.3% | – | 7.24%
CC(=O)SCCC(CCCCC(=O)Nc1cccc(Cl)c1)SC(C)=O (stereo not drawn) | – | 0.31% | – | 0.04% | 48.8% | 38.1% | – | – | 0.56% | – | 20.8% | 2.09% | 42.8% | 3.72% | 0.27% | 5.72%
O=C(CCCCC1CCSS1)Nc1ccc(Br)cn1 (stereo not drawn) | 35.1% | 13.1% | 29.6% | 4.33% | 42.3% | 32.1% | 24.5% | 9% | 13.1% | 4.27% | 45.5% | 38% | 52% | – | – | –
O=C(CCCCC(S)CCS)Nc1ccccn1 (stereo not drawn) | 0.28% | 2.31% | – | – | 18.5% | 14.2% | – | 5.01% | – | – | 3.62% | – | 11.7% | – | – | –
O=C(CCCCC1CCSS1)Nc1cccc2ccccc12 (stereo not drawn) | – | 4.15% | – | 8.37% | – | – | 6.27% | 2.36% | 9.55% | 6.95% | 7.22% | – | – | 3.4% | 0.34% | –
O=C(CCCCC1CCSS1)NO (stereo not drawn) | 0.89% | 0.64% | – | 2.57% | 12.4% | – | 11.8% | 3.9% | 7.39% | – | 12.5% | – | – | 10.4% | – | 7.92%
O=C(CCCCC(CCSC(=O)c1ccccc1)SC(=O)c1ccccc1)Nc1ccc(Cl)cc1 (stereo not drawn) | 10.6% | 9.8% | – | 11.7% | 5.78% | – | 4.87% | 9.36% | 9.62% | 1.29% | – | 12.6% | – | 9.2% | 3.68% | 16.9%
O=C(CCCCC(S)CCS)Nc1cccc2ccccc12 (stereo not drawn) | – | – | – | – | – | – | – | – | 0.69% | – | – | – | 2.18% | – | 0.76% | –
O=C(CCCCC(CCSC(=O)c1ccccc1)SC(=O)c1ccccc1)Nc1cccc(Cl)c1 (stereo not drawn) | 16.6% | 9.48% | – | 12.7% | – | – | – | 15.6% | – | 3.38% | – | 9.12% | – | 1.7% | 9.02% | 10.7%
O=C(CCCCC(S)CCS)NO (stereo not drawn) | 41.5% | 1.17% | 26.2% | 10.6% | 58% | 49.3% | 28.2% | 5.7% | 9.12% | – | 47.5% | 17.7% | 43.7% | 5.96% | – | 7.62%
Cc1cccc(NC(=O)CCCCC(S)CCS)c1 (stereo not drawn) | 7.23% | 9.43% | – | 3.31% | 17.5% | – | 14.1% | 9.34% | 11.1% | 2.76% | 7.08% | 7.67% | 23.1% | 10.1% | 4.92% | 5.75%
O=C(CCCCC(CCSC(=O)c1ccccc1)SC(=O)c1ccccc1)Nc1ccccc1 (stereo not drawn) | 2.67% | 5.93% | – | – | – | – | – | 0.6% | – | 3.79% | – | 11.4% | – | – | 3.12% | 1.52%
CC(=O)SCCC(CCCCC(=O)Nc1ccccc1Cl)SC(C)=O (stereo not drawn) | 6.55% | 13.2% | – | 8.21% | 6.93% | – | 3.09% | 16.6% | 5.01% | – | – | 11.4% | 15.2% | 6.61% | 2.48% | 7.05%
O=C(CCCCC(S)CCS)Nc1ccc(Cl)cc1 (stereo not drawn) | 18.2% | 6.76% | – | 13.3% | 44.1% | 21.3% | 1.16% | – | 0.27% | 2.81% | 25.5% | 21.9% | 40.9% | 1.06% | 1.04% | 9.11%
O=C(CCCCC(S)CCS)Nc1cccc(Cl)c1 (stereo not drawn) | – | 7.2% | – | – | 8.04% | – | 3.22% | 9.78% | 1.14% | – | 16.1% | – | 24.8% | 3.09% | – | –
O=C(CCCCC(S)CCS)Nc1ccc([N+](=O)[O-])cc1 (stereo not drawn) | 13.7% | 4.64% | 8.96% | 0.93% | 41.1% | 51.2% | 14.4% | 5.69% | 1.73% | 0.76% | 33.4% | 13.4% | 39.1% | 1.88% | – | –
